tested on: VEGF induced increases in intracellular calcium levels in HUVEC (human umbilical vein endothelial cells); assay: VEGF Stimulated Ca++ Signal in vitro (FLIPR); type: cell-based; conditions: 10 μM, VEGF 5 ng/mL
Protocol: VEGF Stimulated Ca^++ Signal in vitro
Automated FLIPR (Fluorometric Imaging Plate Reader) technology was used to screen for inhibitors of VEGF induced increases in intracellular calcium levels in fluorescent dye loaded endothelial cells. HUVEC (human umbilical vein endothelial cells) (Clonetics) were seeded in 96-well fibronectin coated black-walled plates overnight at 37° C./5%CO2. Cells were loaded with calcium indicator Fluo-4 for 45 minutes at 37° C. Cells were washed 4 times (Original Cell Wash, Labsystems) to remove extracellular dye. Test compounds were reconstituted in 100% DMSO and added to the cells to give a final DMSO concentration of 0.1%. For screening, cells were pre-incubated with test agents for 30 minutes, at a single concentration (10 μM) or at concentrations ranging from 0.01 to 10.0 μM followed by VEGF stimulation (5 ng/mL). Changes in fluorescence at 516 nm were measured simultaneously in all 96 wells using a cooled CCD camera. Data were generated by determining max-min fluorescence levels for unstimulated, stimulated, and drug treated samples. IC50 values for test compounds were calculated from % inhibition of VEGF stimulated responses in the absence of inhibitor.

Molecule	VEGF Stimulated Ca^++ signal assay % inhibition @ 10 μM
3-[(Methyl-trifluoromethyl-phenylamino)-methylene]-1,3-dihydro-indol-2-one [Example 56]	21.00%
4-[(2-Oxo-1,2-dihydro-indol-3-ylidenemethyl)-amino]-phospate [Example 84]	11.50%
3-[(Fluoro-trifluoromethyl-phenylamino)-methylene]-1,3-dihydro-indol-2-one [Example 47]	−2.50%
5-Chloro-3-[(phenylamino)-methylene]-1,3-dihydro-indol-2-one benzothiazol-6-yl-amine [Example 101]	22.00%
CC(=O)NS(=O)(=O)c1ccc(NC=C2C(=O)Nc3ccccc32)cc1 [Example 39, 2-Oxo-1,2-dihydro-indol-3-ylidenemethyl-sulfaacetamide]	−14.50%
COc1ccc(NC=C2C(=O)Nc3ccccc32)cc1OC [Example 42, 3-[(3,4-Dimethoxyamino)-methylene]-1,3-dihydro-indol-2-one]	59.50%

same assay, conditions: Homo sapiens, 10 μM, VEGF 5 ng/mL

Molecule	inhibition at 10 µM
O=C1Nc2ccccc2C1=CNc1ccc(O)cc1 [Example 12, 3-[(4-Hydroxy-phenylamino)-methylene]-1,3-dihydro-indol-2-one]	94.2%
O=C1Nc2ccccc2C1=CNc1cccc(C(F)(F)F)c1 [Example 22, 3-[(3-Trifluoromethyl-phenylamino)-methylene]-1,3-dihydro-indol-2-one]	22.5%
Cc1cc(C)cc(NC=C2C(=O)Nc3ccccc32)c1 [Example 19, 3-[(3,5-Dimethyl-phenylamino)-methylene]-1,3-dihydro-indol-2-one]	14%
Cc1ccc(NC=C2C(=O)Nc3ccc(Cl)cc32)cc1 [Example 79, 3-[(4-Methylphenylamino)-methylene]-5-chloro-1,3-dihydro-indol-2-one]	-4%
O=C1Nc2ccccc2C1=CNc1ccc2c(c1)OCO2 [Example 80, 3-[(3,4-Methylenedioxyphenylamino)-methylene]-1,3-dihydro-indol-2-one]	3.5%
CCN(CC)Cc1cc(NC=C2C(=O)Nc3cccc(C)c32)ccc1O [Example 161, 3-[(3-Diethylaminomethyl-4-hydroxy-phenylamino)-methylene]-4-methyl-1,3-dihydro-indol-2-one]	95.2%
O=C1Nc2ccccc2C1=CNc1cc(O)c(Cl)cc1F [Example 28, 3-[(4-Chloro-2-fluoro-5-hydroxy-phenylamino)-methylene]-1,3-dihydro-indol-2-one]	32.5%
O=C1Nc2ccc(Cl)cc2C1=CNc1ccc(O)cc1 [Example 77, 3-[(4-Hydroxyphenylamino)-methylene]-5-chloro-1,3-dihydro-indol-2-one]	35%
O=C1Nc2ccccc2C1=CNc1ccc(Cl)cc1 [Example 36, 3-[(4-Chlorophenylamino)-methylene]-1,3-dihydro-indol-2-one]	30%
CCOC(=O)Oc1cc(NC=C2C(=O)Nc3ccccc32)c(F)cc1C [Example 26, Carbonic acid ethyl ester 4-fluoro-2-methyl-5-[(2-oxo-1,2-dihydro-indol-3-ylidenemethyl)-amino]-phenyl ester]	37.5%
Cc1ccc(NC=C2C(=O)Nc3ccccc32)cc1F [Example 10, 3-[(3-Fluoro-4-methyl-phenylamino)-methylene]-1,3-dihydro-indol-2-one]	46%
CCOc1ccc(NC=C2C(=O)Nc3ccc(Cl)cc32)cc1 [Example 107, 5-Chloro-3-[(4-ethoxyphenylamino)-methylene]-1,3-dihydro-indol-2-one]	41.5%
Cc1cc(NC=C2C(=O)Nc3ccccc32)ccc1O [Example 133, 3-[(4-Hydroxy-3-methyl-phenylamino)-methylene]-1,3-dihydro-indol-2-one]	73%
O=C1Nc2ccc(Cl)cc2C1=CNc1ccccc1 [Example 74, 3-[(Phenylamino)-methylene]-5-chloro-1,3-dihydro-indol-2-one]	44%
Cc1cccc2c1C(=CNc1ccc(C(=O)O)c(O)c1)C(=O)N2 [Example 155, 2-Hydroxy-4-[(4-methyl-2-oxo-1,2-dihydro-indol-3-ylidenemethyl)-amino]-benzoic acid]	97.2%
COC(=O)c1ccc(NC=C2C(=O)Nc3ccccc32)cc1OC [Example 89, 2-Methoxy-4-[(2-oxo-1,2-dihydro-indol-3-ylidenemethyl)-amino]-benzoic acid methyl ester]	39.5%

Molecule	inhibition at 10 µM
O=C1Nc2ccccc2C1=CNc1ccc2c(c1)CCC2 [Example 23, 3-(Indan-5-ylaminomethylene)-1,3-dihydro-indol-2-one]	42%
CCc1ccccc1NC=C1C(=O)Nc2ccccc21 [Example 9, 3-[(2-Ethyl-phenylamino)-methylene}-1,3-dihydro-indol-2-one]	13.5%
Cc1cc(NC=C2C(=O)Nc3ccc(Cl)cc32)ccc1O [Example 67, 3-[(3-Methyl-4-hydroxyphenylamino)-methylene]-5-chloro-1,3-dihydro-indol-2-one]	19%
O=C1Nc2ccc(Cl)cc2C1=CNc1cccc(O)c1 [Example 76, 3-[(3-Hydroxyphenylamino)-methylene]-5-chloro-1,3-dihydro-indol-2-one]	55.5%
Cc1cccc2c1C(=CNc1ccc(C(C)(C)C)cc1)C(=O)N2 [Example 98, 3-[(4-tert-Butyl-phenylamino)-methylene]-4-methyl-1,3-dihydro-indol-2-one]	47.5%
O=C1Nc2ccccc2C1=CNc1ccc(C(F)(F)F)cc1 [Example 25, 3-[(4-Trifluoromethyl-phenylamino)-methylene]-1,3-dihydro-indol-2-one]	-1.5%
Cc1cc(NC=C2C(=O)Nc3ccccc32)ccc1Cl [Example 54, 3-[(4-Chloro-3-methyl-phenylamino)-methylene]-1,3-dihydro-indol-2-one]	40.5%
O=C1Nc2ccc(Cl)cc2C1=CNc1ccc(OC(F)(F)F)cc1 [Example 66, 3-[(4-Trifluoromethoxyphenylamino)-methylene]-5-chloro-1,3-dihydro-indol-2-one]	18.5%
COc1cc(NC=C2C(=O)Nc3cccc(C)c32)cc(OC)c1 [Example 61, 3-[(3,5-Dimethoxy-phenylamino)-methylene]-4-methyl-1,3-dihydro-indol-2-one]	-4.5%
O=C1Nc2ccccc2C1=CNc1cccc(Br)c1 [Example 2, 3-[(3-Bromo-phenylamino)-methylene]-1,3-dihydro-indol-2-one]	-0.5%
Cc1ccc(NC=C2C(=O)Nc3ccccc32)c(F)c1 [Example 53, 3-[(2-Fluoro-4-methyl-phenylamino)-methylene]-1,3-dihydro-indol-2-one]	2.5%
O=C1Nc2ccccc2C1=CNc1ccc(Cl)cc1F [Example 24, 3-[(4-Chloro-2-fluoro-phenylamino)-methylene]-1,3-dihydro-indol-2-one]	-13.5%
Cc1cc(NC=C2C(=O)Nc3cccc(C)c32)ccc1O [Example 132, 3-[(4-Hydroxy-3-methyl-phenylamino)-methylene]-4-methyl-1,3-dihydro-indol-2-one]	73%
O=C1Nc2ccc(Cl)cc2C1=CNc1ccc(OC(F)F)cc1 [Example 64, 3-[(4-Difluoromethoxyphenylamino)-methylene]-5-chloro-1,3-dihydro-indol-2-one]	37%
Cc1cc(F)c(NC=C2C(=O)Nc3ccccc32)cc1OC(=O)OCC(C)(C)C [Example 27, Carbonic acid 2,2-dimethyl-propyl ester 4-fluoro-2-methyl-5-[(2-oxo-1,2-dihydro-indol-3-ylidenemethyl)-amino]-phenyl ester]	-9%

same assay, conditions: Homo sapiens, 0.01 to 10.0 μM, VEGF 5 ng/mL

Molecule	IC50
Cc1cccc2c1C(=CNc1ccc(NCCCN3CCN(C)CC3)cc1)C(=O)N2 [Example 303, 4-Methyl-3-({4-[3-(4-methyl-piperazin-1-yl)-propylamino]-phenylamino}-methylene)-1,3-dihydro-indol-2-one]	0.52 µM
O=C1Nc2ccccc2C1=CNc1ccc(O)cc1 [Example 12, 3-[(4-Hydroxy-phenylamino)-methylene]-1,3-dihydro-indol-2-one]	1.07 µM
O=C1Nc2cccc(F)c2C1=CNc1ccc(CCCCN2CCCCC2)cc1 [Example 321, 4-Fluoro-3-{[4-(4-piperidin-1-yl-butyl)-phenylamino]-methylene}-1,3-dihydro-indol-2-one]	1.18 µM
O=C1Nc2cc(F)ccc2C1=CNc1ccc(CCCCN2CCOCC2)cc1 [Example 317, 6-Fluoro-3-{[4-(4-morpholin-4-yl-butyl)-phenylamino]-methylene}-1,3-dihydro-indol-2-one]	0.17 µM
Cc1ccc(NC=C2C(=O)Nc3ccccc32)cc1F [Example 10, 3-[(3-Fluoro-4-methyl-phenylamino)-methylene]-1,3-dihydro-indol-2-one]	≥ 10 µM
Cc1cc(NC=C2C(=O)Nc3ccccc32)ccc1O [Example 133, 3-[(4-Hydroxy-3-methyl-phenylamino)-methylene]-1,3-dihydro-indol-2-one]	4.91 µM
Cc1cccc2c1C(=CNc1ccc(C(=O)O)c(O)c1)C(=O)N2 [Example 155, 2-Hydroxy-4-[(4-methyl-2-oxo-1,2-dihydro-indol-3-ylidenemethyl)-amino]-benzoic acid]	2.6 µM
Cc1cccc2c1C(=CNc1ccc(CCCCN3CCOCC3)cc1)C(=O)N2 [Example 314, 4-Methyl-3-{[4-(4-morpholin-4-yl-butyl)-phenylamino]-methylene}-1,3-dihydro-indol-2-one]	0.32 µM
O=C1Nc2ccc(Cl)cc2C1=CNc1ccc(CCCCN2CCOCC2)cc1 [Example 313, 5-Chloro-3-{[4-(4-morpholin-4-yl-butyl)-phenylamino]-methylene}-1,3-dihydro-indol-2-one]	0.99 µM
Cc1cc(NC=C2C(=O)Nc3cccc(C)c32)ccc1O [Example 132, 3-[(4-Hydroxy-3-methyl-phenylamino)-methylene]-4-methyl-1,3-dihydro-indol-2-one]	7.38 µM

— patent publication US20030225152A1, “3-(Arylamino)methylene-1, 3-dihydro-2h-indol-2-ones as kinase inhibitors” (priority 2001, published 2003)
